{"source": "BindingDB's records for patent US11760761", "about": "(Aligos Therapeutics, 2023)", "note": "pIC50: −log10 of the molar value.", "data": [{"biological_target": "Programmed cell death 1 ligand/protein 1 (Homo sapiens, UniProt Q9NZQ7)", "sequence (Q9NZQ7 whole entry)": "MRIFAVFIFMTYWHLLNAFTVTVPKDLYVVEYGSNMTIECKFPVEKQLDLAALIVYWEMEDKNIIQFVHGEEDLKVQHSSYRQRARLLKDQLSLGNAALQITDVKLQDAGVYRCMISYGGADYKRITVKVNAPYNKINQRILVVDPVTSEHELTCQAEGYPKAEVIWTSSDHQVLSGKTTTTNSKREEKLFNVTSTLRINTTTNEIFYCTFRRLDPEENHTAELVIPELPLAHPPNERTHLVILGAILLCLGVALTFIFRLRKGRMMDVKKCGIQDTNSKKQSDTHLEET", "sequence (Q15116 whole entry, further chain)": "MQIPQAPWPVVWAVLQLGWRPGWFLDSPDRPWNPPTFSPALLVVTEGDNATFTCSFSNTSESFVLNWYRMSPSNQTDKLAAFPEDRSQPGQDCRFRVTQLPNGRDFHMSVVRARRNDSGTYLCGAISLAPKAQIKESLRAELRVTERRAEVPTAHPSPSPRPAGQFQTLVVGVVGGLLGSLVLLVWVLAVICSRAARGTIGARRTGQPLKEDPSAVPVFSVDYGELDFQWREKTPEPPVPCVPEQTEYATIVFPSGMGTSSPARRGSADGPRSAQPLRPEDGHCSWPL", "experiment": "PDL1/PD1 Binding Assay", "experimental": "Compounds to be tested were serially diluted in DMSO, and further diluted in assay buffer (25 mM Hepes pH 7.4, 150 mM NaCl, 0.005% Tween 20, BSA 0.01%). Diluted compounds were added to the wells with final concentration of DMSO at 1%. PDL1-6×His protein was added to the wells, mixed well with compound. The plates were incubated for 30 min at room temperature. PD1-Fc-Avi-Biotin protein was added to the wells. Final concentration of PDL1 and PD1 protein is 0.3 nM and 2.5 nM, respectively. After a binding time of 30 min at room temperature, Anti-6×His Acceptor beads (final concentration 20 ug/ml) were added to the wells, and the incubation continued for 1 h. Streptavidin Donor beads (final concentration 20 ug/mL) were added at reduced light. The plates were sealed with foil and incubated in the dark for additional 1 h or overnight before reading on an Envision reader.", "values": [{"smiles": "COc1cc(-c2cccc(-c3cccc(-c4cnc(CN5CC6(CCC(=O)N6)C5)c(OC)n4)c3Cl)c2Cl)cc2c1[C@H](NCC(=O)O)CC2", "note": "(single isomer, unassigned) [US11760761, Compound B-2]", "pIC50": "> 8.00"}, {"smiles": "COc1cc(-c2cccc(-c3cccc(-c4cnc(CN5CC6(CCC(=O)N6)C5)c(OC)n4)c3Cl)c2Cl)cc2c1[C@@H](NCC(=O)O)CC2", "note": "[US11760761, Compound B-1]", "pIC50": "> 8.00"}, {"smiles": "COc1nc(-c2cccc(-c3cccc(-c4cc5c(c(OC)n4)[C@@H](NC[C@@H]4CCC(=O)N4)CC5)c3Cl)c2Cl)cnc1CN1CC2(CCC(=O)N2)C1", "note": "[US11760761, Compound C-1]", "pIC50": "> 8.00"}, {"smiles": "COc1nc(-c2cccc(-c3cccc(-c4cc5c(c(OC)n4)[C@@H](NC[C@@H]4CCC(=O)N4)CC5)c3Cl)c2Cl)cnc1CN1CC2(C1)CN(C(C)=O)C2", "note": "[US11760761, Compound D-1]", "pIC50": "> 8.00"}, {"smiles": "COc1nc(-c2cccc(-c3cccc(-c4cc5c(c(OC)n4)[C@@H](NC[C@@H]4CCC(=O)N4)CC5)c3Cl)c2Cl)ccc1CNC[C@@H]1CCC(=O)N1", "note": "[US11760761, Compound E-1]", "pIC50": "> 8.00"}, {"smiles": "COc1nc(-c2cccc(-c3cccc(-c4cc5c(c(OC)n4)[C@@H](NC[C@@H]4CCC(=O)N4)CC5)c3Cl)c2Cl)cc(C)c1CN1CC2(C1)CN(C(C)=O)C2", "note": "[US11760761, Compound E-2]", "pIC50": "> 8.00"}, {"smiles": "COc1nc(-c2cccc(-c3cccc(-c4cc5c(c(OC)n4)[C@H](NC[C@@H]4CCC(=O)N4)CO5)c3Cl)c2Cl)ccc1CNC[C@@H]1CCC(=O)N1", "note": "[US11760761, Compound E-6]", "pIC50": "> 8.00"}, {"smiles": "COc1nc(-c2cccc(-c3cccc(-c4cc5c(c(OC)n4)[C@H](NC[C@@H]4CCC(=O)N4)CO5)c3Cl)c2Cl)ccc1CN1CC(OC)C1", "note": "[US11760761, Compound E-7]", "pIC50": "> 8.00"}, {"smiles": "COc1nc(-c2cccc(-c3cccc(-c4cc5c(c(OC)n4)C(N4CCC[C@@H](C(=O)O)C4)CC5)c3Cl)c2Cl)cnc1CN1CC(O)C1", "note": "(stereo not given in full) [US11760761, Compound F-1]", "pIC50": "> 8.00"}, {"smiles": "CCOC(=O)C1CN([C@H]2CCc3cc(-c4cccc(-c5cccc(-c6cnc(CN7CC(O)C7)c(OC)n6)c5Cl)c4Cl)nc(OC)c32)C1", "note": "[US11760761, Compound G-1]", "pIC50": "> 8.00"}, {"smiles": "COc1nc(-c2cccc(-c3cccc(-c4cc5c(c(OC)n4)[C@@H](N4CC(C(=O)O)C4)CC5)c3Cl)c2Cl)cnc1CN1CC(O)C1", "note": "[US11760761, Compound H-1]", "pIC50": "> 8.00"}, {"smiles": "CCOC(=O)CN1CCc2c(cc(-c3cccc(-c4cccc(-c5cnc(CN6CC(O)C6)c(OC)n5)c4Cl)c3Cl)nc2OC)C1", "note": "[US11760761, Compound I-1]", "pIC50": "> 8.00"}, {"smiles": "COc1nc(-c2cccc(-c3cccc(-c4cc5c(c(OC)n4)CCN(CC(=O)O)C5)c3Cl)c2Cl)cnc1CN1CC(O)C1", "note": "[US11760761, Compound J-1]", "pIC50": "> 8.00"}, {"smiles": "COc1nc(-c2cccc(-c3cccc(-c4cc5c(c(OC)n4)CCN(C[C@@H]4CCC(=O)N4)C5)c3Cl)c2Cl)cnc1CN1CC2(CCC(=O)N2)C1", "note": "[US11760761, Compound K-1]", "pIC50": "> 8.00"}, {"smiles": "COCCN1CCc2c(cc(-c3cccc(-c4cccc(-c5cnc(CN6CC7(CCC(=O)N7)C6)c(OC)n5)c4Cl)c3Cl)nc2OC)C1", "note": "[US11760761, Compound K-2]", "pIC50": "> 8.00"}]}]}
